Results published in paper PMC10108821, “Three tyrosine kinase inhibitors cause cardiotoxicity by inducing endoplasmic reticulum stress and inflammation in cardiomyocytes” (BMC Medicine, 2023).

Columns and labels:
[1] = test system: patients; conditions: cited from earlier work; for level of cardiotoxicity based on literature reports: ref Table S1, 2, 4, 26–36
[2] = test system: HELP hiPSC-CMs; assay: CardioExcyte 96 microelectrode array: base impedance and extracellular field potential; assay type: cell-based, human; conditions: fixed doses: 10 µM, crizotinib and ponatinib 3.16 µM; up to 24 h
Procedure: HELP hiPSC-CMs were seeded evenly into the 96-well microelectrode array, NSP-96 0.6mm sensor plate (Nanion technologies), at 50,000 cells per well. Measurements were started after 3-5 days of culture of these cells and until the impedance and the extracellular field potential are stable. Measurements were taken a few times before drug addition, and every 30~60 minutes after the drugs were added at 2x concentration. Values were averaged from 3 wells per group. Beat rate, amplitude of impedance, base impedance and FPDc were calculated by the Cardio Excyte Control 96 software package (Nanion Technologies).

[3] = test system: Cor.4U hiPSC-CMs; assay: 3'DGE-UMI RNAseq transcriptome of hiPSC-CMs; conditions: for expression of mitochondrial tRNA and electron transfer chain genes: high PC2 loadings; for expression of genes associated with heart contraction: Cluster 4, day 3 or day 5
[4] = test system: Cor.4U hiPSC-CMs; assay: ATP level (CellTiter-Glo) in hiPSC-CMs; assay type: cell-based, human; conditions: for effect on ATP levels: 0.32 to 10 µM, day 1 to day 5; for dose-dependent toxicity (ATP fold changes): day 1, different doses; for dose-dependent toxicity (ATP fold changes) / time-dependent toxicity (ATP fold changes): RNAseq conditions; for time-dependent toxicity (ATP fold changes): fixed dose over 5 days
Procedure: ATP content was measured using the CellTiter-Glo Luminescent Cell Viability Assay (Promega) following the manufacturer’s protocol. After adding CellTiter-Glo reagents and incubation, luminescence was quantified using a Synergy H1 plate reader (BioTek Instruments). ATP standards were prepared from 0.01 to 5 μM. For each drug, we fitted a four-parameter log-logistic model to calculate ED50 at day 5 (Fig S1). To rank the cellular toxicity of the eight TKIs (Fig 1T), we calculated (EC50-Cmax)/(EC50+Cmax) and arranged from the smallest to the biggest for increasing cellular toxicity.

[5] = test system: NRCMs; assay: Seahorse assay: oxygen consumption and extracellular acidification; assay type: cell-based, rat; conditions: 24 h; fixed doses: 10 µM, crizotinib and ponatinib 3.16 µM
Procedure: (§1) Rats were euthanized by decapitation and thoracic cavity was opened with scissors and hearts were popped out of the opening gently with fingers. Hearts were clipped and put in HBSS immediately; 20–40 hearts were collected into one sterile vial containing a magnetic stir bar and 1 mL digestive media made of 0.1% trypsin (Macklin) and 0.05% collagenase (Gibco) in HBSS. Hearts were minced until they were uniform in size. Digestive media was added to 10 mL for 40 hearts and stirred gently for 6 min. Supernatant was discarded and the digestion was repeated once; 10 mL digestive media was added and stirred gently for 10 min. The supernatant with cells were collected and the digestion and collection were repeated 4 times. Cells were centrifuged at 1200 rpm for 5 min, resuspended in media (Dulbecco’s modified Eagleʼs medium (Gibco)) with 10% fetal bovine serum (FBS; VISTECH), 1% penicillin–streptomycin, and 1% 0.1 M 5-bromo-2-deoxyuridine solution (Shanghai Yuanye) and filtered through a 40-μm cell strainer. Cells were seeded on a 100-mm plastic dish and cultured in a 5% CO2 incubator at 37 °C for 2 h to allow non-myocytes to adhere to the plate. The dish was swirled and media gently pipetted up and down to detach lightly attached cardiomyocytes. The collected myocytes were seeded in the same media described before; 48 h after plating, medium was exchanged to fresh DMEM (Gibco) with or without 2% FBS. All drug treatments were performed after this media change.
NRCMs were seeded evenly into the Seahorse XF96 cell culture plates (Agilent) and cultured in DMEM high glucose with 2% FBS. About 2 hours before the test, cells were moved to a non-CO2 incubator at 37 ° C and incubated for 1 hour. 1 hour prior to the test, culture media was replaced with the Seahorse Basal DMEM at 37°C (with appropriate concentration of glucose, 4mM L-glutamine, 1 mM sodium pyruvate and 1% penicillin-streptomycin solution) and incubated in a non-CO2 incubator at 37°C for 1 hour. Drugs were prepared at 8x to 10x concentrations with the corresponding seahorse media as in each well and added into ports of Seahorse XF96 cartridge plates which have been hydrated overnight. XFe96 Extracellular Flux Analyzer (Agilent) was used to measure oxygen consumption rate and extracellular acidification rate of cells with different drug treatments.

[6] = test system: NRCMs; assay: Mitochondrial membrane potential by TMRE staining; assay type: cell-based, rat; conditions: 24 h of treatment
Excerpt: Fig S3 Mitochondrial membrane potential changes in response to TKIs. (A) Raw images of TMRE staining in NRCMs treated with different drugs. (B) Fold changes in mitochondrial membrane potential at different treatments.

[7] = test system: NRCMs; assay: Lipid peroxidation by C11-bodipy 581/591 and flow cytometry; conditions: 100 µM, 3 hours, Fig. S15
Procedure: For ROS assessment, cells were washed with PBS once and stained with 10μM H2DCFHDA (MCE) in phenol red-free DMEM (Procell) in a humid incubator with 5% CO2 at 37°C for 30 minutes. Cells were washed with PBS twice and dissociated to single cells before flow cytometry analysis at the FITC channel. For lipid peroxidation measurement, cells were washed with PBS once and stained with 2μM C11-bodipy^581/591 (Cayman) in phenol red-free DMEM (Procell) in a humid incubator with 5% CO2 at 37°C for 30 minutes. Cells were washed with PBS twice and dissociated to single cells before flow cytometry analysis at both the FITC and the PE channels. Fluorescence of the oxidized C11-bodipy were acquired through the FITC channel (Ex/Em=488/520nm) and that of the non-oxidized C11-bodipy through the PE channel (Ex/Em=555/624nm).

[8] = test system: NRCMs; assay: qRT-PCR of fetal, pro-inflammatory and ER stress genes with pathway-selective inhibitors; assay type: cell-based, rat; conditions: 24 h
Procedure: as §1
(§2) RNA was isolated based on a standard protocol using TRIzol reagent (Vazyme). TRIzol (1ml per 1 well of a 6-well plate) was used to lyse cells and chloroform was added for RNA separation. Samples were shaked vigorously by hand for 15 seconds and incubated at room temperature for 2-3 minutes. RNA was present in the aqueous phase after centrifuge at 12000 x g for 15 minutes. Isopropyl alcohol was mixed to precipitate RNA from the aqueous phase. RNA precipitations were washed with 75% ethanol once and re-dissolved in RNase-free water. 1 μg total RNA was used for cDNA synthesis using a reverse transcription kit (Bioman). We then measured expression of genes of interest with SYBRR Green qPCR Mix (Bioman) using Applied Biosystems 7500 Quantitative PCR Instrument. Gene expression was normalized to the 18S ribosomal RNA expression and primers were listed in Primers Table.

[9] = test system: NRCMs; conditions: ISRIB 200 nM or 4μ8c 10 μM with 10 µM sorafenib, 24-hr
Procedure: After treatment, cells were stained with 5 μg/mL Propidium iodide (Sigma-Aldrich) mixed with Hoechst33342 (Solarbio) in Phenol red-free DMEM (Procell) in a 5% CO2 incubator at 37°C for 30 minutes. Images of PI staining were acquired through the filter Ex/Em=555/624nm and of the nuclei staining through the filter Ex/Em=405/452 using ImageXpress Micro Confocal-AWES (Molecular Devices).

[10] = test system: ER stress genes in NRCMs; assay: qRT-PCR of ER stress genes in NRCMs; assay type: cell-based, rat; conditions: trolox 1 mM with afatinib or sorafenib
Procedure: as §1, with “The collected myocytes were seeded in the same media described before; 48 h after plating, medium was exchanged to fresh DMEM (Gibco) with or without 2% FBS.” left out
as §2, with “RNA precipitations were washed with 75% ethanol once and re-dissolved in RNase-free water.” left out

Compound	level of cardiotoxicity based on literature reports [1]	effect on beat rate, contraction, base impedance and corrected field potential duration [2]	effect on ATP levels [4]	dose-dependent toxicity (ATP fold changes) [4]	basal oxygen consumption rate (OCR) [5]	other results
C[C@@H](Oc1cc(-c2cnn(C3CCNCC3)c2)cnc1N)c1c(Cl)ccc(F)c1Cl [crizotinib]	medium-levels of cardiotoxicity	stopped beating and contraction of hiPSC-CMs after 0.5 h of treatment	dose-dependent and time-dependent reduction in ATP levels	dose-dependent toxicity	trend of inhibiting basal oxygen consumption rate (OCR)	expression of mitochondrial tRNA and electron transfer chain genes [3]: upregulated
CCN(CC)CCNC(=O)c1c(C)[nH]c(/C=C2\C(=O)Nc3ccc(F)cc32)c1C [sunitinib]	high-levels of cardiotoxicity	increased beat rate initially and reduced the base impedance very acutely	dose-dependent and time-dependent reduction in ATP levels	dose-dependent toxicity	trend of inhibiting basal oxygen consumption rate (OCR)	congestive heart failure ([1]; meta-analysis of 6935 patients): 4.1%; mitochondrial membrane potential [6]: trend of decreasing mitochondrial membrane potentials; expression of mitochondrial tRNA and electron transfer chain genes [3]: upregulated; time-dependent toxicity (ATP fold changes) [4]: increasing toxicity with treatment duration; maximal, spare and non-mitochondrial oxygen consumption [5]: inhibited maximal, spare, and non-mitochondrial oxygen consumption significantly
CC(C)(OO)c1ccccc1 [cumene hydroperoxide]						level of lipid peroxidation, positive control [7]: 42%
Cc1cc(=O)oc2c(C=O)c(O)ccc12 [4μ8c]						induction of inflammatory genes and cardiac fetal genes (Anp, Bnp/Nppb, Myh6) by TKIs ([8]; 4μ8c 10 μM co-treatment with TKIs): blunted; effect on Atf4, Ddit3, Xbp1s and Dnajb9 expression induced by TKIs ([8]; ISRIB 200 nM or 4μ8c 10 μM with TKIs): inhibited Xbp1s and Dnajb9 without affecting the ATF4 axis; rescue from cell death induced by sorafenib [9]: significantly rescued cardiac cell from death induced by sorafenib
COc1cc2ncnc(Nc3ccc(F)c(Cl)c3)c2cc1OCCCN1CCOCC1 [gefitinib]	low cardiotoxicity	minimal effects on these parameters	did not inhibit ATP at any dose or time point tested	did not		expression of genes associated with heart contraction [3]: upregulated
Cc1nc(Nc2ncc(C(=O)Nc3c(C)cccc3Cl)s2)cc(N2CCN(CCO)CC2)n1 [dasatinib]	medium-levels of cardiotoxicity	minimal effects on these parameters	did not inhibit ATP at any dose or time point tested	did not	trend of inhibiting basal oxygen consumption rate (OCR)	expression of genes associated with heart contraction [3]: upregulated; time-dependent toxicity (ATP fold changes) [4]: increasing toxicity with treatment duration
Cc1cn(-c2cc(NC(=O)c3ccc(C)c(Nc4nccc(-c5cccnc5)n4)c3)cc(C(F)(F)F)c2)cn1 [nilotinib]	medium-levels of cardiotoxicity	minimal effects on these parameters	dose-dependent and time-dependent reduction in ATP levels			mitochondrial membrane potential [6]: trend of decreasing mitochondrial membrane potentials; EC50 (ATP) compared with maximal plasma concentration (Cmax) ([4]; day 5): lower than or similar to their maximal plasma concentrations (Cmax)
Cc1c(C)c2c(c(C)c1O)CCC(C)(C(=O)O)O2 (centres unmarked) [trolox]						effect on induction of ER stress by TKIs [10]: did not block the induction of ER stress by these TKIs
